The source of these data is ChEMBL document CHEMBL5303766, “Data for DCP probe FHT-2344” (2022).

Structures are written as SMILES. Calls of active or inactive are those of the source. No cut-off for these calls is given here.

Experiment [1] addresses SWI/SNF-related matrix-associated actin-dependent regulator of chromatin subfamily A member 2 (Homo sapiens, UniProt P51531). The experiment in a line: Luciferase reporter assay: SMARCA2 transcriptional activity in a SMARCA4-mutant cell line. Type of experiment: functional.
The target of experiment [2] is SWI/SNF-related matrix-associated actin-dependent regulator of chromatin subfamily A member 4 (Homo sapiens, UniProt P51532). Nature of the experiment: Luciferase reporter assay: SMARCA4 transcriptional activity in a SMARCA2-mutant cell line. The class given is functional.
Sequence of SWI/SNF-related matrix-associated actin-dependent regulator of chromatin subfamily A member 4 (P51532 whole entry, looked up, stated change not applied): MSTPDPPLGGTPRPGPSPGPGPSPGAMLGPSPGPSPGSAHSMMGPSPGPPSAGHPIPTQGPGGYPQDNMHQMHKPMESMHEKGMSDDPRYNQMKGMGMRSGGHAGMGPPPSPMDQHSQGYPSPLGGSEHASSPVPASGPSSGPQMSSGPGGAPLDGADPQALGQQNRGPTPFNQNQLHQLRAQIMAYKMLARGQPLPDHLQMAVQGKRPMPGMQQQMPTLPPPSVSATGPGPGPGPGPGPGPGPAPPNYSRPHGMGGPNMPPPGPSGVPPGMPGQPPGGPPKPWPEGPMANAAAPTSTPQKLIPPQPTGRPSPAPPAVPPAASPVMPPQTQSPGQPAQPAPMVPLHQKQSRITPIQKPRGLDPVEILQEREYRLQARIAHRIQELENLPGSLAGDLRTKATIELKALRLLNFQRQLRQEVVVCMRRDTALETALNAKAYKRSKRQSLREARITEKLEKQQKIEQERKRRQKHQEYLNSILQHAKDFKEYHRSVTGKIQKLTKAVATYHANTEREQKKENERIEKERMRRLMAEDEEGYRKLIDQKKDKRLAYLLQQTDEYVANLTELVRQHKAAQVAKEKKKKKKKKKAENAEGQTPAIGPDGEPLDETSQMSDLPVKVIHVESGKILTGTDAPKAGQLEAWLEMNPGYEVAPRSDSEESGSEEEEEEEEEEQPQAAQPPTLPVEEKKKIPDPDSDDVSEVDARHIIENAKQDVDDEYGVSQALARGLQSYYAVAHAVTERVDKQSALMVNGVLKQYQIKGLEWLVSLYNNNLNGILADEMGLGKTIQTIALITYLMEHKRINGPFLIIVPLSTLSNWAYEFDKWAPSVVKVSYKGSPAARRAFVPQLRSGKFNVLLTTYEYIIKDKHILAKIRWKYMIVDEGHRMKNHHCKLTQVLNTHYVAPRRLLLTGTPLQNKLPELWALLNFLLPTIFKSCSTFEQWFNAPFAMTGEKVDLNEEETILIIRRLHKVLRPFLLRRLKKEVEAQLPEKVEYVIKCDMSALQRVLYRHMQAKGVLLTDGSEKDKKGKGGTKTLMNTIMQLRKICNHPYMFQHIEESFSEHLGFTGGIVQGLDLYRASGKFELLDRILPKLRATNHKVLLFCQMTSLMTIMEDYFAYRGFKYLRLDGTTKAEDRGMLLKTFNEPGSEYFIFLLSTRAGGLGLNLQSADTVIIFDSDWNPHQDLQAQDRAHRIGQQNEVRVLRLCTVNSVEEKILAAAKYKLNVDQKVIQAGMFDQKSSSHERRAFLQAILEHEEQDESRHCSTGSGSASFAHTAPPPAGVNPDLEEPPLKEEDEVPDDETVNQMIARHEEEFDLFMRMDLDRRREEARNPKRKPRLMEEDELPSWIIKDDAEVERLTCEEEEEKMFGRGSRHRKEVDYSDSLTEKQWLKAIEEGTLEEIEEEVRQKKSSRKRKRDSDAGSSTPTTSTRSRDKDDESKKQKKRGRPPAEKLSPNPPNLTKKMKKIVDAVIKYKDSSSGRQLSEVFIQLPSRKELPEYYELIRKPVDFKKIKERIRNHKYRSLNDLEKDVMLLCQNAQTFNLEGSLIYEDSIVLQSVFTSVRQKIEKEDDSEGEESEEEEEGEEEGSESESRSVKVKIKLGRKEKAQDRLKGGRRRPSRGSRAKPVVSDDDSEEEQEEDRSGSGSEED
For experiment [3], the target named is Serine/threonine-protein kinase 10 (Homo sapiens) (UniProt O94804). The experiment in a line: STK10 SGC Tm panel (DSF). The note with it: for ΔTm: Compound concentration 10.0 uM.
Sequence of Serine/threonine-protein kinase 10 (Homo sapiens) (O94804 whole entry, looked up): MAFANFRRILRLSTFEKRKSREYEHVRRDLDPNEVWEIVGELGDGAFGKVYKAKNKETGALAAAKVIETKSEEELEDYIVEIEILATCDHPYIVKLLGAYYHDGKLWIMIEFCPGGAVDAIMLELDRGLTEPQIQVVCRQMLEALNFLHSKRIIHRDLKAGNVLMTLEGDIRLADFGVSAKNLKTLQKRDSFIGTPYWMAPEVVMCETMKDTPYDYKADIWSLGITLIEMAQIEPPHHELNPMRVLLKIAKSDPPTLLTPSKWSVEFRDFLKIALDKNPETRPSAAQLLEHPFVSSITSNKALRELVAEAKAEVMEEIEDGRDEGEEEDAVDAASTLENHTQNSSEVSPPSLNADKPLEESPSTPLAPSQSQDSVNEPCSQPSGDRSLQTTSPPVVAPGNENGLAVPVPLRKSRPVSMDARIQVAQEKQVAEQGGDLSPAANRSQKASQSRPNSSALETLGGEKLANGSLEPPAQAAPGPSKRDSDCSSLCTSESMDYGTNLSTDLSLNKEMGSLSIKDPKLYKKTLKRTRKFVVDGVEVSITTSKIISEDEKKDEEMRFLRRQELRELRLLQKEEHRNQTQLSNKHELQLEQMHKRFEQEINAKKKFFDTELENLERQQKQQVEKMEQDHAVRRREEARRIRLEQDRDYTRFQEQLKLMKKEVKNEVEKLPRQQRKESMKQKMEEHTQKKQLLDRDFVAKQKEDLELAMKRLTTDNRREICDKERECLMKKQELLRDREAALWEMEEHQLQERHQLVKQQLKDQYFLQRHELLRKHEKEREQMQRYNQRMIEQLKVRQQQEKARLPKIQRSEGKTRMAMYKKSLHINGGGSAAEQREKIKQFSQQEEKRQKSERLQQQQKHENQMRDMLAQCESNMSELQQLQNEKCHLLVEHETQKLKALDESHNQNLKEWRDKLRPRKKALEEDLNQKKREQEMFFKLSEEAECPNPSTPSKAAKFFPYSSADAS
Experiment [4] addresses T1, Peregrin (Homo sapiens) (UniProt P55201).
T1 sequence (whole entry): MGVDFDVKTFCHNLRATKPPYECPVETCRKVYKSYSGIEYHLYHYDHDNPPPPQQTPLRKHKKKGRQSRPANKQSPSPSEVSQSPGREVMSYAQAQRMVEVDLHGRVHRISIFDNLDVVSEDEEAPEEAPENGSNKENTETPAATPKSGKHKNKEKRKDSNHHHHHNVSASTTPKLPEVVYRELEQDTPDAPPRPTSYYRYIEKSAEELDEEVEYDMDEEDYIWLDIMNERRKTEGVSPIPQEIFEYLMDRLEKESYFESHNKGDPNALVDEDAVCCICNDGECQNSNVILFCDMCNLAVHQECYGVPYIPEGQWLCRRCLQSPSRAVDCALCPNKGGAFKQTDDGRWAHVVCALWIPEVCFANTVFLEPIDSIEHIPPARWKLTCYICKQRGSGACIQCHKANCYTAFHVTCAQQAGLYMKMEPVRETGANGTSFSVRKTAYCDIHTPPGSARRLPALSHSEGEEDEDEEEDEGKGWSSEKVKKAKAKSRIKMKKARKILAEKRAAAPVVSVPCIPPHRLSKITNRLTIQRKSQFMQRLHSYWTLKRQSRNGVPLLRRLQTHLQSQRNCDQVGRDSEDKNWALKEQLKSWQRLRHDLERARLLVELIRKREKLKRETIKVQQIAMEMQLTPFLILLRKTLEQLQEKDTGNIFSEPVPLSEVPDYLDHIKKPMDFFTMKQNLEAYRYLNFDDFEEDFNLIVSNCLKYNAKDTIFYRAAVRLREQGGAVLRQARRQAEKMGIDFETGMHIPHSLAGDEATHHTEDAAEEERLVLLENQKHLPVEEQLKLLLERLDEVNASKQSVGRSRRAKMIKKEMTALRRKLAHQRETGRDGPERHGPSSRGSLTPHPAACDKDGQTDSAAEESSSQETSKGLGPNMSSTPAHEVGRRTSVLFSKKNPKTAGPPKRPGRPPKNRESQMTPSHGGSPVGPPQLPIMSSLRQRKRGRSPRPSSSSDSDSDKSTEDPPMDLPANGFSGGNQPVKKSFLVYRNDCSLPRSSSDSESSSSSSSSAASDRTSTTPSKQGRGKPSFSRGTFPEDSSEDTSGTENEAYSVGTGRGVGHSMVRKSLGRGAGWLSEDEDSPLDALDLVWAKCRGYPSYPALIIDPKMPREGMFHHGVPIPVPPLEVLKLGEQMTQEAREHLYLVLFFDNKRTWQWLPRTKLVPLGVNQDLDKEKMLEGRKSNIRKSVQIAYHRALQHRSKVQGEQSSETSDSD
The experiment in a line: BRPF1 SGC Tm panel (DSF). The note with it: for ΔTm: Compound concentration 10.0 uM.

Experiment [5] has as its target Transcription initiation factor TFIID subunit 1 (Homo sapiens) (UniProt P21675). The experiment in a line: TAF1 SGC Tm panel (DSF). The note with it: for ΔTm: Compound concentration 10.0 uM.
Experiment [6] addresses T2, Serine/threonine-protein kinase VRK1 (Homo sapiens) (UniProt Q99986).
T2 sequence (whole entry): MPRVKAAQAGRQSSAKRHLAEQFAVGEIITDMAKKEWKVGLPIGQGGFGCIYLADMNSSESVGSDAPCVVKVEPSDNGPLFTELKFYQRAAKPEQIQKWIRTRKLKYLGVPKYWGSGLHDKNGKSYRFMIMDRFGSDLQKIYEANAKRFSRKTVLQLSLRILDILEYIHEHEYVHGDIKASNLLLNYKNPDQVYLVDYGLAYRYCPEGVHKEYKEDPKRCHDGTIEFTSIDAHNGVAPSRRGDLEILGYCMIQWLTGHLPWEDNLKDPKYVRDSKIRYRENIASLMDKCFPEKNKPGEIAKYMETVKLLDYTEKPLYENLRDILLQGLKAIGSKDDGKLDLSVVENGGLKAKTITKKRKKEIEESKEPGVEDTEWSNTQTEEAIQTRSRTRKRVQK
Nature of the experiment: VRK1 SGC Tm panel (DSF). The note with it: for ΔTm: Compound concentration 10.0 uM.

Experiment [7] addresses T3, Ephrin type-B receptor 1 (Homo sapiens) (UniProt P54762).
T3 sequence (whole entry): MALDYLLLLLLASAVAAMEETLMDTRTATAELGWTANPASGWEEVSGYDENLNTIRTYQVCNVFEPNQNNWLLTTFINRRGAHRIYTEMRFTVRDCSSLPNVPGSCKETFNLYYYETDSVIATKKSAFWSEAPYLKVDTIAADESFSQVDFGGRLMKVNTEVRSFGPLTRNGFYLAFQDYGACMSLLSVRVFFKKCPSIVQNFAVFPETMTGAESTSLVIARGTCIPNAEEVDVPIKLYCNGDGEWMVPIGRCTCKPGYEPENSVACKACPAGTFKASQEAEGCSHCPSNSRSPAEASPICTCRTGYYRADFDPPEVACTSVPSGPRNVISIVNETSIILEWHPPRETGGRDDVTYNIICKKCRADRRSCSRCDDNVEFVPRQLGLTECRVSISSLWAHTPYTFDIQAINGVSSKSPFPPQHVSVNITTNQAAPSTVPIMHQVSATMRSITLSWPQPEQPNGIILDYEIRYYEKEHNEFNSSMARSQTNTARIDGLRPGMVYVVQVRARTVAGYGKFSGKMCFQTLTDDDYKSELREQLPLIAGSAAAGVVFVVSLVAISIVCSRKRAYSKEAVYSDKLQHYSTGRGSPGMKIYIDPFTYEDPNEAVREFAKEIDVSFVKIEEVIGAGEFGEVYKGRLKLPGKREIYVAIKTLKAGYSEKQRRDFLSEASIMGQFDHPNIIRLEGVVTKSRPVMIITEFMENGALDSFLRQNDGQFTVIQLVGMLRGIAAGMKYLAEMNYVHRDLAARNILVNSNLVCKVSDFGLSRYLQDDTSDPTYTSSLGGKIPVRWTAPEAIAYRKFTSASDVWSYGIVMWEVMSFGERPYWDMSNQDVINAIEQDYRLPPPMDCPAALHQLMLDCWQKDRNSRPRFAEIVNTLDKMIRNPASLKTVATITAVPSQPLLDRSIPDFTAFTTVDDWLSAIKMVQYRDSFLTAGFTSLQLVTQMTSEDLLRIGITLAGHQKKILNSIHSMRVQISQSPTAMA
The experiment in a line: EPHB1 SGC Tm panel (DSF). The note with it: for ΔTm: Compound concentration 10.0 uM.

Experiment [8] deals with D(1A) dopamine receptor (Homo sapiens) (UniProt P21728). The note with it: Compound concentration 10.0 uM.
Sequence of D(1A) dopamine receptor (Homo sapiens) (P21728 whole entry): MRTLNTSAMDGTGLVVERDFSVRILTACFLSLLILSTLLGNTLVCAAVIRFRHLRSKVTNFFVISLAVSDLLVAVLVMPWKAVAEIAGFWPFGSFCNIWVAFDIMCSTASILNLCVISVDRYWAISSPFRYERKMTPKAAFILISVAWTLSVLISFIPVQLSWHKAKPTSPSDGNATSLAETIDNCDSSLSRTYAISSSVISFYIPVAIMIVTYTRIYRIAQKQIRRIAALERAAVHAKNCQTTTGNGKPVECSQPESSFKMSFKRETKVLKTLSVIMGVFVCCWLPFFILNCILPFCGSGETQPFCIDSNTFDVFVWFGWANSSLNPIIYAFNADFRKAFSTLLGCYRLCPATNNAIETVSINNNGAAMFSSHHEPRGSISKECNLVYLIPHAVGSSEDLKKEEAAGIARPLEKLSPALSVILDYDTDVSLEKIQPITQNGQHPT

Sequence of Transcription initiation factor TFIID subunit 1 (Homo sapiens) (P21675 whole entry): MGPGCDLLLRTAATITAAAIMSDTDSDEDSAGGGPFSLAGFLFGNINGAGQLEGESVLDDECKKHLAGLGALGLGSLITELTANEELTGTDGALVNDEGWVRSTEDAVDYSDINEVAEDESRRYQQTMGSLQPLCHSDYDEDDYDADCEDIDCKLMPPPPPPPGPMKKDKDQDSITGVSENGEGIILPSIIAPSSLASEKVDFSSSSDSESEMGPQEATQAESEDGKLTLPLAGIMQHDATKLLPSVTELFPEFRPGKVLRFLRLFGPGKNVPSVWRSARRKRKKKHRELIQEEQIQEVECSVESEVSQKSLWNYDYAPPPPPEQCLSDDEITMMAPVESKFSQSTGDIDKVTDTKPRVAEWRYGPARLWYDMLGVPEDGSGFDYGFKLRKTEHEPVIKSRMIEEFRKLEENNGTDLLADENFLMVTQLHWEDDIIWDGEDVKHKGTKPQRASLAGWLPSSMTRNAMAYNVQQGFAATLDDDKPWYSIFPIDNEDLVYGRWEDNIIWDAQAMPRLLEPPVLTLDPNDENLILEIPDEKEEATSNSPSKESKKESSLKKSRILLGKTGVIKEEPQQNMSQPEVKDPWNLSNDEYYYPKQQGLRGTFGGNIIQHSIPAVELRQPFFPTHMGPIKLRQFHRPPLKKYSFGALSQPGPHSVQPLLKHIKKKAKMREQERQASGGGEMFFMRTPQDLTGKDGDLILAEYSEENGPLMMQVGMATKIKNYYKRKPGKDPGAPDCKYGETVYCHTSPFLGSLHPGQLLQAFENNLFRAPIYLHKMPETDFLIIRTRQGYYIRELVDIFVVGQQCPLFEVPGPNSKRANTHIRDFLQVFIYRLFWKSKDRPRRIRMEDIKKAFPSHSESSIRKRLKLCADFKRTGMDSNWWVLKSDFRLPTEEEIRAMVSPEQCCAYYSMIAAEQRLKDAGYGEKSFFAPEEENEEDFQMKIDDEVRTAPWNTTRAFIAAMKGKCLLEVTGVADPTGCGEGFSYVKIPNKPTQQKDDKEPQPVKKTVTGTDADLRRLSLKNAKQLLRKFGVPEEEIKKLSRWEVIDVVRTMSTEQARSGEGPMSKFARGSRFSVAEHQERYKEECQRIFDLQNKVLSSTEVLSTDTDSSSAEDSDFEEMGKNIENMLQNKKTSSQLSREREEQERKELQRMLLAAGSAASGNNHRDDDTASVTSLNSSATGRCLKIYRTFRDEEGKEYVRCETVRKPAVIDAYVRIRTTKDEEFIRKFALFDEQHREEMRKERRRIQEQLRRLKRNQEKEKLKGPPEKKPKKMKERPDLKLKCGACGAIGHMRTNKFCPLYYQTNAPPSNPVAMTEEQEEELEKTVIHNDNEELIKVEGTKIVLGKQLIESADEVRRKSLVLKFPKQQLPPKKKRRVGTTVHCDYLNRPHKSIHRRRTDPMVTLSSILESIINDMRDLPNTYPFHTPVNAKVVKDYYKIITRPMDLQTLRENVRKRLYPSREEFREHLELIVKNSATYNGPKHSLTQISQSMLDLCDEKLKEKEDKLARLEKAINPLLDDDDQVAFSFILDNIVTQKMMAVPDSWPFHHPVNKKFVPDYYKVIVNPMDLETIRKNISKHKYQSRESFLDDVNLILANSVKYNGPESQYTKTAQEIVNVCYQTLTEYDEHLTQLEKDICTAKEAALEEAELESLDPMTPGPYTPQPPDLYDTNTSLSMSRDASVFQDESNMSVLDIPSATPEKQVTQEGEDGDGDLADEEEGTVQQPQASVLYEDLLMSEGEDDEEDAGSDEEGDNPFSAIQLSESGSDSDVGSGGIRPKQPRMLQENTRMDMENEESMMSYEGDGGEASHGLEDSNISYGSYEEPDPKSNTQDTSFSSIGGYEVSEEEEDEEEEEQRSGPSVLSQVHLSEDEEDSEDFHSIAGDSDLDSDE

`COC[C@H](NC(=O)c1ccn(S(C)(=O)=O)c1)C(=O)Nc1nc(-c2cccc(-c3ccn(C)n3)c2)cs1`: the IC50 in experiment [1] is 29.8 nM (active); in experiment [2] it was 30.2 nM (active). For the same molecule, the delta Tm Staurosporine positive control is 22.7 in experiment [3]; -0.0506 in experiment [4]; 0.177 in experiment [5]; 3.19 in experiment [6]; 6.19 in experiment [7]. In addition, the ΔTm was 0.244 in experiment [3]; -1.23 in experiment [4]; 0.0215 in experiment [5]; 0.303 in experiment [6]; -0.318 in experiment [7]. For the same molecule, the inhibition in experiment [8] was 30.9%.

On to `C[C@H](NC(=O)c1cn(C2(C#N)CC2)cn1)C(=O)Nc1nc(-c2cccc(-c3ccn(C)n3)c2)cs1`, for which the IC50 in experiment [1] was 4350 nM (not active); in experiment [2], 2370 nM (not active). For the same molecule, the delta Tm Staurosporine positive control in experiment [3] is 22.7; in experiment [4], -0.0506; in experiment [5], 0.177; in experiment [6] it was 3.19; in experiment [7], 6.19. The ΔTm was 0.554 in experiment [3]; -1.18 in experiment [4]; -0.179 in experiment [5]; 0.296 in experiment [6]; 0.229 in experiment [7]. Besides, the inhibition in experiment [8] is 38.9%.
